Data reported in patent publication US20230339991A1, “HYPOXIA-ACTIVATED DNA ALKYLATING AGENT AND MEDICAL USE THEREOF” (ASCENTAWITS PHARMACEUTICALS, LTD., priority 2020, published 2023).
Where two headings read alike, the source gives them in different places.

Experiments:
hepatoma cell HepG2 = test: Hypoxia-dependent proliferation inhibition, HepG2; assay type: cell-based, human; conditions: for IC50: Homo sapiens; for HCR (hypoxic cytotoxicity ratio): IC50 ratio normoxia/N2
From the text: (§1) To determine the effect of the drug A according to the present invention on cancer cell proliferation, the antiproliferative activity of these compounds against the cancer cell was detected in a porous CTG-based assay. The effects of test compounds on cell proliferation under normoxic (21% O2) and hypoxic (<0.01% O2) conditions were compared. H460 cells were routinely cultured to 80%-90% of cell saturation, and when the number reached the requirement, resuspended with the corresponding culture medium, counted and prepared into cell suspension with appropriate density. The cell suspension was added to two types of 24-well plates, 495 μL per well with 1×10^4/well of cell density. 24-well plates inserted with glass insert were used for hypoxic tests, and ordinary plastic 24-well plates were used for normoxic tests. 5 μL of each compound was added to the hypoxic and normoxic reaction systems, respectively. After reacting for 3 hours in the hypoxic workstation or the normoxic incubator, the compounds were washed away using the culture medium and the system was placed in an incubator for another 72 hours. The final concentrations of each compound tested under normoxic conditions were as follows: TH-302 was 1000, 200, 40, 8, 1.6, 0.32 μM; test compound A (compound 32) was 1000, 200, 40, 8, 1.6, 0.32 μM; compound 26 was 500, 50, 5, 0.5, 0.05 μM. The final concentrations of each compound tested under hypoxic conditions were as follows: TH-302 was 10, 2, 0.4, 0.08, 0.016, 0.0032 μM; test compound A (compound 32) was 50, 5, 0.5, 0.05, 0.005, 0.0005 μM; compound 26 was 500, 50, 5, 0.5, 0.05 μM. After 72 hours of cell culture, 300 μL of culture medium was removed from each well of 24-well plate. 50 μL of CTG was added into each well. The plate was mixed and shaked for 2 min, and kept in dark for 15 minutes at room temperature. 100 μL per well of culture medium was transferred from 24-well plate to 96-well white plate, and the chemiluminescence signal value was read with Multifunctional enzyme marker with a reading time of 1000 ms. The IC50 was calculated using GraphPad Prism 5 software. […] The compound TH-302 (a hypoxic-activated prodrug entering phase III clinical studies, cas No. 918633-87-1, see the literature Sun J D, Liu Q, Wang J, et al. Selective tumor hypoxia targeting by hypoxia-activated prodrug TH-302 inhibits tumor growth in preclinical models of cancer. [J]. Clinical Cancer Research An Official Journal of the American Association for Cancer Research, 2012, 18(3): 758-70, structural formula is
Similarly, the above-mentioned three compounds were tested for the proliferation inhibition effect on hepatoma cell HepG2, and the results are shown in the following table 5.

[1] = Liver microsome stability, human; conditions: for Remaining percentage after 30 minutes: Human
Experimental: (§2) 1) Two individual experiments were performed.
(§3) 1a) With NADPH: 10 μL of 20 mg/mL liver microsomes and 40 μL of 10 mM NADPH were added to the culture solution. The final concentrations of microsomes and NADPH were 0.5 mg/mL and 1 mM, respectively.
(§4) 1b) Without NADPH: 10 μL of 20 mg/mL liver microsomes and 40 μL of ultrapure H2O were added to the culture solution. The final concentration of microsomes was 0.5 mg/mL.
(§5) 3) 50 μL of aliquots were taken from the reaction solution at 0 min and 30 min. The reaction was terminated by adding 4 volumes of cold acetonitrile and four internal standards (IS, 100 nM alprazolam, 200 nM caffeine, 200 nM labetalol and 2 μM ketoprofen). The samples were centrifuged at 3, 220×g for 40 min. The aliquots of 100 μL of supernatant were mixed with 100 μL of ultrapure H2O and then used for LC-MS/MS analysis. All experiments were performed in duplicate.

[2] = Liver microsome stability, dog; conditions: for Remaining percentage after 30 minutes: Dog
Experimental: as §2, §3, §4, §5

[3] = Liver microsome stability, rat; conditions: for Remaining percentage after 30 minutes: Rat
Experimental: as §2, §3, §4, §5

[4] = Liver microsome stability, mouse; conditions: for Remaining percentage after 30 minutes: Mouse
Experimental: as §2, §3, §4, §5

H460 cancer cells = test: Hypoxia-dependent proliferation inhibition, H460, CTG; assay type: cell-based, human; conditions: for IC50: Homo sapiens, 3 h exposure
From the text: as §1, with “formula is […]” for “formula is”

[5] = N2 (hypoxic), read-out: IC50 N2
[6] = normoxia, read-out: IC50 Normoxia
[7] = NCI-H460, hypoxic (<0.01% O2), read-out: N2 IC50
[8] = NCI-H460, normoxic (21% O2), read-out: Normoxic IC50

Row | Structure (SMILES) | IC50 (hepatoma cell HepG2; [5]) [µM] | IC50 (hepatoma cell HepG2; [6]) [µM] | HCR (hypoxic cytotoxicity ratio) (hepatoma cell HepG2) | stability in liver microsomes ([1]; human) | stability in liver microsomes ([2]; canine) | stability in liver microsomes ([3]; rat) | stability in liver microsomes ([4]; mouse) | IC50 ratio: Normoxia/N2 (H460 cancer cells) | IC50 (H460 cancer cells; [7]) [µM] | Remaining percentage after 30 minutes ([1]; without NADPH) [%] | Remaining percentage after 30 minutes ([2]; with NADPH) [%] | Remaining percentage after 30 minutes ([2]; without NADPH) [%] | Remaining percentage after 30 minutes ([3]; with NADPH) [%] | Remaining percentage after 30 minutes ([3]; without NADPH) [%] | Remaining percentage after 30 minutes ([4]; with NADPH) [%] | Remaining percentage after 30 minutes ([4]; without NADPH) [%] | Remaining percentage after 30 minutes ([1]; with NADPH, 2 μM) [%] | IC50 (H460 cancer cells; [8]) [µM]
1 | O=[N+]([O-])c1ccc(C(OP(=O)(N2CC2)N2CC2)C(F)(F)F)c2ccccc12 (racemic) [Compound A] | 4.78 | 20.6 | 4.31 | relatively stable | not stable | not stable | relatively stable | 12.5 | 0.04 |  |  |  |  |  |  |  |  | 
2 | O=[N+]([O-])c1ccc([C@@H](OP(=O)(N2CC2)N2CC2)C(F)(F)F)c2ccccc12 (single isomer, unassigned) [Compound C] |  |  |  |  |  |  |  |  |  | 82.15 | 31.16 | 101.62 | 71.05 | 111.15 | 102.89 | 103.07 |  | 
3 | CC(OP(=O)(N1CC1)N1CC1)c1ccc([N+](=O)[O-])c2ccccc12 (stereo not drawn) [Compound D] | 1.5 | 16.7 | 11.13 |  |  |  |  | 20 | 0.04 | 107.67 | 9.97 | 99.10 | 6.81 | 103.00 | 32.37 | 96.37 | 74.28 | 0.8
4 | Cn1c(COP(=O)(NCCBr)NCCBr)cnc1[N+](=O)[O-] [TH-302, Evofosfamide] | 12.4 | 918 | 72.82 |  |  |  |  | 680 | 0.02 |  |  |  |  |  |  |  |  | 13.6
